In ChEMBL document CHEMBL3885861, “Open TG-GATES”:

Species on record: Rattus norvegicus
Assay: Open TG-GATES - Regimen: Daily Repeat
Assay type: toxicity, organism-based, Sprague-Dawley
Parameters: regimen Daily Repeat, gender Male, age 6 weeks
Conditions: in vivo, po, 0 mg/kg, route gavage, dose level Control; for APTT / Bas / Eos / Fbg / Hb / Ht / Lym / MCH / MCHC / MCV / Mono / Neu / PT / Plat / RBC / Ret / WBC: tissue Blood; for KIDNEY_L / KIDNEY_R / KIDNEY_TOTAL: tissue Kidney; for LIVER: tissue Liver; for A/G / ALP / ALT / AST / BUN / CRE / Ca / Cl / DBIL / GLC / IP / K / LDH / Na / PL / RALB / TBIL / TC / TG / TP / gamma-GTP: tissue Plasma

Compound CCOC(=O)C(C)(C)Oc1ccc(Cl)cc1 [CLOFIBRATE] has a TERMINAL_BW (72 h, time 3 day) of 239.8 g, an APTT (72 h, time 3 day) of 20.7 s and a Bas (72 h, time 3 day) of 0%. The Eos (72 h, time 3 day) was 1%, the Fbg (72 h, time 3 day) was 221 mg/dL and the Hb (72 h, time 3 day) was 13.8 g/dL. For the same compound, the Ht (72 h, time 3 day) was 39.5%, the Lym (72 h, time 3 day) was 75% and the MCH (72 h, time 3 day) was 21.3 pg. For the same compound, the MCHC (72 h, time 3 day) was 34.9%, the MCV (72 h, time 3 day) was 61.1 fL and the Mono (72 h, time 3 day) was 3.2%. The Neu (72 h, time 3 day) was 20.2%, the PT (72 h, time 3 day) was 12.2 s and the Plat (72 h, time 3 day) was 124.2 x10_4/uL. The RBC (72 h, time 3 day) was 646.2 x10_4/ul, the Ret (72 h, time 3 day) was 5.4% and the WBC (72 h, time 3 day) was 98 x10_2/uL. It also gave a KIDNEY_L (72 h, time 3 day) of 1 g, a KIDNEY_R (72 h, time 3 day) of 1.1 g and a KIDNEY_TOTAL (72 h, time 3 day) of 2.1 g. It also gave an LIVER (72 h, time 3 day) of 12 g, an A/G (72 h, time 3 day) of 1.6 and an ALP (72 h, time 3 day) of 881.8 IU/L. The ALT (72 h, time 3 day) was 37.4 IU/L, the AST (72 h, time 3 day) was 68 IU/L and the BUN (72 h, time 3 day) was 14 mg/dL. The CRE (72 h, time 3 day) was 0.4 mg/dL, the Ca (72 h, time 3 day) was 11.1 mg/dL and the Cl (72 h, time 3 day) was 102 meq/L. For the same compound, the DBIL (72 h, time 3 day) was 0.088 mg/dL, the GLC (72 h, time 3 day) was 194.2 mg/dL and the IP (72 h, time 3 day) was 7 mg/dL. It also gave a K (72 h, time 3 day) of 4.1 meq/L, an LDH (72 h, time 3 day) of 230.6 IU/L and a Na (72 h, time 3 day) of 140.6 meq/L. For the same compound, the PL (72 h, time 3 day) was 162.4 mg/dL, the RALB (72 h, time 3 day) was 3.5 g/dL and the TBIL (72 h, time 3 day) was 0.1 mg/dL. The TC (72 h, time 3 day) was 78 mg/dL, the TG (72 h, time 3 day) was 137.2 mg/dL and the TP (72 h, time 3 day) was 5.6 g/dL. The gamma-GTP (72 h, time 3 day) was 1.2 IU/L, the TERMINAL_BW ([…], time 7 day) was 268.6 g and the TERMINAL_BW ([…], time 14 day) was 332 g. The TERMINAL_BW ([…], time 28 day) was 392.8 g, the APTT ([…], time 7 day) was 20.7 s and the Bas ([…], time 7 day) was 0%. It also gave an Eos ([…], time 7 day) of 0.8%, a Fbg ([…], time 7 day) of 238 mg/dL and a Hb ([…], time 7 day) of 14.4 g/dL. For the same compound, the Ht ([…], time 7 day) was 41%, the Lym ([…], time 7 day) was 81.6% and the MCH ([…], time 7 day) was 21.4 pg. It also gave an MCHC ([…], time 7 day) of 35.2%, an MCV ([…], time 7 day) of 60.8 fL and a Mono ([…], time 7 day) of 2.6%. It also gave a Neu ([…], time 7 day) of 14.6%, a PT ([…], time 7 day) of 11.8 s and a Plat ([…], time 7 day) of 118.2 x10_4/uL. For the same compound, the RBC ([…], time 7 day) was 675.8 x10_4/ul, the Ret ([…], time 7 day) was 5.1% and the WBC ([…], time 7 day) was 104.1 x10_2/uL. It also gave an APTT ([…], time 14 day) of 19 s, a Bas ([…], time 14 day) of 0% and an Eos ([…], time 14 day) of 0.8%. For the same compound, the Fbg ([…], time 14 day) was 227.2 mg/dL, the Hb ([…], time 14 day) was 14.3 g/dL and the Ht ([…], time 14 day) was 41.2%. The Lym ([…], time 14 day) was 80.4%, the MCH ([…], time 14 day) was 20.3 pg and the MCHC ([…], time 14 day) was 34.6%. For the same compound, the MCV ([…], time 14 day) was 58.5 fL, the Mono ([…], time 14 day) was 3% and the Neu ([…], time 14 day) was 15%. For the same compound, the PT ([…], time 14 day) was 12.3 s, the Plat ([…], time 14 day) was 118.5 x10_4/uL and the RBC ([…], time 14 day) was 704.8 x10_4/ul. The Ret ([…], time 14 day) was 4.4%, the WBC ([…], time 14 day) was 137.8 x10_2/uL and the APTT ([…], time 28 day) was 21.1 s. It also gave a Bas ([…], time 28 day) of 0%, an Eos ([…], time 28 day) of 1% and a Fbg ([…], time 28 day) of 219.4 mg/dL. The Hb ([…], time 28 day) was 15.2 g/dL, the Ht ([…], time 28 day) was 43.2% and the Lym ([…], time 28 day) was 81.4%. It also gave an MCH ([…], time 28 day) of 19.3 pg, an MCHC ([…], time 28 day) of 35.3% and an MCV ([…], time 28 day) of 54.9 fL. The Mono ([…], time 28 day) was 2.6%, the Neu ([…], time 28 day) was 14.4% and the PT ([…], time 28 day) was 12 s. It also gave a Plat ([…], time 28 day) of 119.8 x10_4/uL, an RBC ([…], time 28 day) of 786.6 x10_4/ul and a Ret ([…], time 28 day) of 2.1%. For the same compound, the WBC ([…], time 28 day) was 108.2 x10_2/uL, the KIDNEY_L ([…], time 7 day) was 1.1 g and the KIDNEY_R ([…], time 7 day) was 1.1 g. It also gave a KIDNEY_TOTAL ([…], time 7 day) of 2.2 g, a KIDNEY_L ([…], time 14 day) of 1.3 g and a KIDNEY_R ([…], time 14 day) of 1.3 g. For the same compound, the KIDNEY_TOTAL ([…], time 14 day) was 2.6 g, the KIDNEY_L ([…], time 28 day) was 1.4 g and the KIDNEY_R ([…], time 28 day) was 1.4 g. It also gave a KIDNEY_TOTAL ([…], time 28 day) of 2.8 g, an LIVER ([…], time 7 day) of 12.5 g and an LIVER ([…], time 14 day) of 14.9 g. It also gave an LIVER ([…], time 28 day) of 16 g, an A/G ([…], time 7 day) of 1.6 and an ALP ([…], time 7 day) of 994.8 IU/L. For the same compound, the ALT ([…], time 7 day) was 33.8 IU/L, the AST ([…], time 7 day) was 64.6 IU/L and the BUN ([…], time 7 day) was 16.6 mg/dL. It also gave a CRE ([…], time 7 day) of 0.4 mg/dL, a Ca ([…], time 7 day) of 10.5 mg/dL and a Cl ([…], time 7 day) of 102.2 meq/L. It also gave a DBIL ([…], time 7 day) of 0.098 mg/dL, a GLC ([…], time 7 day) of 213.2 mg/dL and an IP ([…], time 7 day) of 7.2 mg/dL. It also gave a K ([…], time 7 day) of 3.8 meq/L, an LDH ([…], time 7 day) of 192.2 IU/L and a Na ([…], time 7 day) of 138.8 meq/L. The PL ([…], time 7 day) was 144.8 mg/dL, the RALB ([…], time 7 day) was 3.6 g/dL and the TBIL ([…], time 7 day) was 0.2 mg/dL. The TC ([…], time 7 day) was 70.2 mg/dL, the TG ([…], time 7 day) was 122 mg/dL and the TP ([…], time 7 day) was 5.8 g/dL. It also gave a gamma-GTP ([…], time 7 day) of 0.6 IU/L, an A/G ([…], time 14 day) of 1.3 and an ALP ([…], time 14 day) of 852.2 IU/L. For the same compound, the ALT ([…], time 14 day) was 37.4 IU/L, the AST ([…], time 14 day) was 62 IU/L and the BUN ([…], time 14 day) was 16.2 mg/dL. The CRE ([…], time 14 day) was 0.4 mg/dL, the Ca ([…], time 14 day) was 10.6 mg/dL and the Cl ([…], time 14 day) was 101 meq/L. It also gave a DBIL ([…], time 14 day) of 0.082 mg/dL, a GLC ([…], time 14 day) of 209.4 mg/dL and an IP ([…], time 14 day) of 7 mg/dL. It also gave a K ([…], time 14 day) of 3.8 meq/L, an LDH ([…], time 14 day) of 155 IU/L and a Na ([…], time 14 day) of 140.4 meq/L. The PL ([…], time 14 day) was 148 mg/dL, the RALB ([…], time 14 day) was 3.4 g/dL and the TBIL ([…], time 14 day) was 0.1 mg/dL. It also gave a TC ([…], time 14 day) of 74.2 mg/dL, a TG ([…], time 14 day) of 118.4 mg/dL and a TP ([…], time 14 day) of 5.9 g/dL. For the same compound, the gamma-GTP ([…], time 14 day) was 0.8 IU/L, the A/G ([…], time 28 day) was 1.4 and the ALP ([…], time 28 day) was 622.2 IU/L. It also gave an ALT ([…], time 28 day) of 31.2 IU/L, an AST ([…], time 28 day) of 57.4 IU/L and a BUN ([…], time 28 day) of 15.2 mg/dL. The CRE ([…], time 28 day) was 0.4 mg/dL, the Ca ([…], time 28 day) was 10.4 mg/dL and the Cl ([…], time 28 day) was 102.6 meq/L. For the same compound, the DBIL ([…], time 28 day) was 0.08 mg/dL, the GLC ([…], time 28 day) was 207.2 mg/dL and the IP ([…], time 28 day) was 5.9 mg/dL. It also gave a K ([…], time 28 day) of 3.8 meq/L, an LDH ([…], time 28 day) of 154.6 IU/L and a Na ([…], time 28 day) of 140.8 meq/L. The PL ([…], time 28 day) was 145.6 mg/dL, the RALB ([…], time 28 day) was 3.5 g/dL and the TBIL ([…], time 28 day) was 0.1 mg/dL. The TC ([…], time 28 day) was 66.8 mg/dL, the TG ([…], time 28 day) was 124.4 mg/dL and the TP ([…], time 28 day) was 6.1 g/dL. For the same compound, the gamma-GTP ([…], time 28 day) was 0.8 IU/L.
